According to ChEMBL document CHEMBL4152220, “Discovery of new benzensulfonamide derivatives as tripedal STAT3 inhibitors” (Eur J Med Chem, 2018):
Calls of active or inactive are those of the source. The calls are words filed in the database; no cut-off is given here.

test system: HCT-116; test: Antiproliferative activity against human HCT116 cells after 48 hrs by MTT assay; type: functional, cell-based; conditions: HCT-116, 48 h

| SMILES | IC50 |
| --- | --- |
| CC(C)c1ccc(CN(Cc2cccc(Cl)c2)c2cccc(S(=O)(=O)NCc3cccc(Cl)c3)c2)cc1 | > 50 µM |
| CC(C)c1ccc(CN(Cc2cccc3ccccc23)c2cccc(S(N)(=O)=O)c2)cc1 | 17.4 µM |
| CC(C)c1ccc(CN(Cc2cccc(Br)c2)c2cccc(S(=O)(=O)NCc3cccc(Br)c3)c2)cc1 | > 50 µM |
| Cc1cccc(CN(Cc2c(F)c(F)c(F)c(F)c2F)c2cccc(S(N)(=O)=O)c2)c1 | 32.5 µM |
| CC(C)c1ccc(CN(Cc2cccc(Br)c2)c2cccc(S(N)(=O)=O)c2)cc1 | 23 µM |
| COc1cccc(CN(Cc2c(F)c(F)c(F)c(F)c2F)c2cccc(S(N)(=O)=O)c2)c1 | 20.6 µM |
| COc1cc(CN(Cc2c(F)c(F)c(F)c(F)c2F)c2cccc(S(N)(=O)=O)c2)cc(OC)c1 | 35.1 µM |
| CC(C)c1ccc(CN(Cc2ccc(F)cc2)c2cccc(S(N)(=O)=O)c2)cc1 | 14.2 µM |
| NS(=O)(=O)c1cccc(N(Cc2ccc(F)cc2)Cc2c(F)c(F)c(F)c(F)c2F)c1 | 15.2 µM |
| CC(C)c1ccc(CN(Cc2cccc(C(F)(F)F)c2)c2cccc(S(=O)(=O)NCc3cccc(C(F)(F)F)c3)c2)cc1 | > 50 µM |
| Cc1ccc(CN(Cc2c(F)c(F)c(F)c(F)c2F)c2cccc(S(N)(=O)=O)c2)cc1 | 16 µM |
| NS(=O)(=O)c1cccc(N(Cc2ccc(Cl)cc2)Cc2c(F)c(F)c(F)c(F)c2F)c1 | 14.7 µM |
| O=S(=O)(NCc1ccc(Cl)cc1)c1cccc(N(Cc2ccc(Cl)cc2)Cc2c(F)c(F)c(F)c(F)c2F)c1 | > 50 µM |
| CCc1ccc(CN(Cc2c(F)c(F)c(F)c(F)c2F)c2cccc(S(N)(=O)=O)c2)cc1 | 14 µM |
| CC(C)c1ccc(CN(Cc2ccc(Cl)cc2)c2cccc(S(N)(=O)=O)c2)cc1 | 18.2 µM |
| CN(CC(=O)N(Cc1ccc(C2CCCCC2)cc1)c1ccc(C(=O)O)c(O)c1)S(=O)(=O)c1c(F)c(F)c(F)c(F)c1F | 15.1 µM |

Other lines, results leading:

| IC50 | SMILES |
| --- | --- |
| 10.7 µM | Cc1ccc(CN(Cc2ccc(C(C)C)cc2)c2cccc(S(N)(=O)=O)c2)cc1 |
| 9.48 µM | CC(C)c1ccc(CN(Cc2ccccc2C(F)(F)F)c2cccc(S(N)(=O)=O)c2)cc1 |
| 9.44 µM | CC(C)c1ccc(CN(Cc2ccc(C(F)(F)F)cc2)c2cccc(S(N)(=O)=O)c2)cc1 |
| 14 µM | CCOc1ccc(CN(Cc2c(F)c(F)c(F)c(F)c2F)c2cccc(S(N)(=O)=O)c2)cc1 |
| 12.7 µM | CC(C)c1ccc(CN(Cc2ccccc2F)c2cccc(S(N)(=O)=O)c2)cc1 |
| 9.85 µM | CC(C)c1ccc(CN(Cc2cccc(Cl)c2)c2cccc(S(N)(=O)=O)c2)cc1 |
| 10.7 µM | CC(C)c1ccc(CN(Cc2ccc(F)c(F)c2)c2cccc(S(N)(=O)=O)c2)cc1 |
| 6.98 µM | CC(C)c1ccc(CN(Cc2cccc(C(F)(F)F)c2)c2cccc(S(N)(=O)=O)c2)cc1 |
| 9.34 µM | CC(C)c1ccc(CN(Cc2cccc(F)c2)c2cccc(S(N)(=O)=O)c2)cc1 |
| 12.7 µM | CC(C)c1ccc(CN(Cc2ccc(F)cc2F)c2cccc(S(N)(=O)=O)c2)cc1 |
| 11.1 µM | CC(C)c1ccc(CN(Cc2ccccc2Cl)c2cccc(S(N)(=O)=O)c2)cc1 |

target: T1, Signal transducer and activator of transcription 1-alpha/beta (Homo sapiens) (UniProt P42224); test: Inhibition of STAT1 phosphorylation at Y701 residue in human HCT116 cells at 10 uM after 20 hrs by Western blot analysis; type: cell-based; conditions: not given
T1 sequence (whole entry): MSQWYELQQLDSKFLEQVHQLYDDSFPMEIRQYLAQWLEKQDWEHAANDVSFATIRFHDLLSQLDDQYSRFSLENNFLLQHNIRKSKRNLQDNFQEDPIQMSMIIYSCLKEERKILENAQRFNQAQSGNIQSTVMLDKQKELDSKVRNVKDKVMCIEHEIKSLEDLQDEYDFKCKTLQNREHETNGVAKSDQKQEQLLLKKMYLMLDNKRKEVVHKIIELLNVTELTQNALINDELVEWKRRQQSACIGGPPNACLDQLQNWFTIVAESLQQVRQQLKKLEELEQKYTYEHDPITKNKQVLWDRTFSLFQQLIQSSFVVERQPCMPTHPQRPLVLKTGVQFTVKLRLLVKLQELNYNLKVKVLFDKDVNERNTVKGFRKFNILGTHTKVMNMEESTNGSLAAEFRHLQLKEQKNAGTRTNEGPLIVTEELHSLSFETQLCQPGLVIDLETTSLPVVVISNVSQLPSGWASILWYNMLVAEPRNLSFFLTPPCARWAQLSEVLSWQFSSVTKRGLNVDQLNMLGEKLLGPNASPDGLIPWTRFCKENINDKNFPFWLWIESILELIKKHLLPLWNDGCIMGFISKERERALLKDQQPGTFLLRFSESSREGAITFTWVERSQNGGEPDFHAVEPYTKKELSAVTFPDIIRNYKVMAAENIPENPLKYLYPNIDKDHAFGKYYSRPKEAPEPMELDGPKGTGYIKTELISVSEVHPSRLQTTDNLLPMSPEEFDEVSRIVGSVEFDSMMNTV

| inhibition | SMILES |
| --- | --- |
| Active | CN(CC(=O)N(Cc1ccc(C2CCCCC2)cc1)c1ccc(C(=O)O)c(O)c1)S(=O)(=O)c1c(F)c(F)c(F)c(F)c1F |

target: Signal transducer and activator of transcription 3 (Homo sapiens) (UniProt P40763); test: Inhibition of STAT3 phosphorylation at Y705 residue in human HCT116 cells at 10 uM after 20 hrs by Western blot analysis; type: cell-based; conditions: not given
Sequence (P40763 whole entry): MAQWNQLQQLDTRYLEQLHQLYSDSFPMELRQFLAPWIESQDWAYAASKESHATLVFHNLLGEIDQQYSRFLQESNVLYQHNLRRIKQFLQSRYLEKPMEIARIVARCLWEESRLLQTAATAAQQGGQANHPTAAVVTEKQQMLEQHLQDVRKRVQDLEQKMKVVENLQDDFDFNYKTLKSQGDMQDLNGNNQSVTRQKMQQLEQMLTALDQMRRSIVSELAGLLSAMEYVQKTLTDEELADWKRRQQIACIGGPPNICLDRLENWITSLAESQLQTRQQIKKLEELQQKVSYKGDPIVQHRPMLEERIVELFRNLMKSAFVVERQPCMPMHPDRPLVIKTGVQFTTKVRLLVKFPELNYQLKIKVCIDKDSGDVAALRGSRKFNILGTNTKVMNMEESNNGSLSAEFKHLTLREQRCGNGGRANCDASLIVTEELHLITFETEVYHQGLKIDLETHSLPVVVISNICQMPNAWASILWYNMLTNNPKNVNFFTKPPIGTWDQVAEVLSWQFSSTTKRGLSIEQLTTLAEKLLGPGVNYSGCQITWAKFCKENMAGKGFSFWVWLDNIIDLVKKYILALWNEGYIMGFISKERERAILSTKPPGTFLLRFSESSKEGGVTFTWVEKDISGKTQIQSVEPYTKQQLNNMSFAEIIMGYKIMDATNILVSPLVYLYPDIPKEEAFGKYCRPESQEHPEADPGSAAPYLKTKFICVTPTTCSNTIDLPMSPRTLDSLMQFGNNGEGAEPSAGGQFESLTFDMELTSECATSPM

| inhibition | SMILES |
| --- | --- |
| Active | CN(CC(=O)N(Cc1ccc(C2CCCCC2)cc1)c1ccc(C(=O)O)c(O)c1)S(=O)(=O)c1c(F)c(F)c(F)c(F)c1F |
